Brc1sc(Br)c(Br)c1Br
solubility (mole fraction)
Conditions	in THF	in chloroform	in ethanol	in ethyl acetate	in ethyl formate	in methanol	in n-butanol	in n-propanol	in toluene
278.05 K	0.0405	0.02	–	0.00809	0.00389	–	0.00267	–	0.027
281.25 K	0.0436	0.0229	0.00149	0.00924	0.00451	0.000395	0.00295	0.00219	0.0314
286.15 K	0.0469	0.0269	0.00165	0.0109	0.00546	0.000465	0.00369	0.00256	0.0358
290.15 K	0.0511	0.0302	0.0018	0.0124	0.00632	0.000517	0.00433	0.00287	0.04
293.15 K	0.0538	0.0334	0.002	0.0137	0.00705	0.000567	0.0048	0.00319	0.044
297.15 K	0.0572	0.039	0.00221	0.0154	0.00809	0.000646	0.0054	0.00364	0.0486
302.15 K	0.0625	0.0455	0.00267	0.0183	0.00969	0.00076	0.00636	0.00433	0.0554
307.15 K	0.0685	0.0536	0.0031	0.0216	0.0118	0.000896	0.0077	0.00514	0.0626
311.65 K	0.0738	0.0629	0.00356	0.0249	0.0138	0.00103	0.00895	0.00584	0.0713
315.65 K	0.0788	0.0687	0.00404	0.0279	0.0154	0.0012	0.0102	0.0067	0.0756
320.15 K	0.0843	0.0781	0.00475	0.0326	0.0174	0.00144	0.0118	0.00812	0.0834
325.15 K	–	–	0.00566	–	–	0.00169	–	0.00965	–
